Publication PMC6389962 (Nature Communications, 2019)
pEC50: −log10 of the molar value. Like-named read-outs stand apart in the source and are kept apart here. Starred links: 1 amine or outer side, 2 acyl side, 3 side chain; linkers in the order of their positions; H or OH if unused. Positions of bridges follow the written chain, without caps; N, C: chain ends. Residues, ends and D or L forms follow the SMILES beside them. Chains are numbered I, II in the order given. X2 = C[C@@H](CNC(=O)N[C@@H](C)CNC(=O)N[C@@H](C)CNC(=O)N[C@@H](C)CNC(=O)[*:2])NC(=O)NC[C@H](CCC(=O)O)NC(=O)NC[C@H](Cc1ccc(O)cc1)N[*:1]; X3 = C[C@@H](CNC(=O)[*:1])NC(=O)NC[C@H](CCC(=O)O)NC(=O)NC[C@H](Cc1ccc(O)cc1)N[*:2]; X1 = C[C@@H](CNC(=O)N[C@@H](C)CNC(=O)[*:2])NC(=O)NC[C@H](C)N[*:1]

Legend:
in vitro [1] = details: mouse, plasma; for remaining at 20 min, 5 µM / remaining at 1 h, 5 µM: pH 7.4, % remaining analogue
Procedure: The oligomer was then diluted 1/50 with a solution of plasma/PBS pH 7.4 (1:1) to afford a final concentration of 5 µM and incubated at 37 °C (4 µL of the stock solution was diluted with 196 µL of plasma/PBS, pH 7.4, 1:1). Each compound was also incubated in the absence of plasma (196 µL of H2O/PBS, pH 7.4, 1:1). At the indicated time (20 min and 60 min) an aliquot of 70 µL was removed from each experimental reaction and pipetting into 175 µL of acetonitrile at 0 °C to quench the reaction (t = 0 min was determined using the reaction without plasma). The samples were frozen at –80 °C before analysis. The frozen samples were defrosted, stirred with a vortex 5 min and finally centrifuged 5 min at 16 °C (1500 × g). The supernatant was analysed by LC-MS. The time course of oligomer degradation was determined by integrating the area of the peak in the extracted ion chromatogram.
Supplementar y Figur e 2 : Mouse plasma degradation assay. […] Data are
mean ± SEM, n = 4. Source data are provided as a Source Data file (T able 2 tab).
Supplementar y Figur e 3.
Data are mean ± SEM, n = 3.
Source data are provided as a Source Data file […]

normal mice (C57BL/6J) = assay: Blood glucose study in normal fed mice; type: in vivo, mouse; design: key to In vivo activity (indicator): + active; +++: + + + more active; details: for In vivo activity (indicator): mice, 50 nmol kg−1 i.v.; for time after dosing for which the blood glucose decrease is preserved / effect on blood glucose concentration: normal fed C57BL/6J mice, n = 3, 5 μg per mouse (50 nmol kg−1) i.v.; for effect on blood glucose concentration: monitored 6 h
Procedure: In the first study, we evaluated the effect of the analogues on the blood glucose concentration of normal mice (Fig. 3). The fed mice were treated with the analogues and their blood glucose concentration was monitored before and after dosing for 6 h. […] Indeed, a decrease of blood glucose concentration is observed after 30 min and the effect is preserved for 4 h after dosing.
Fig. 3 Blood glucose study in mice. a–c Blood glucose concentration in normal mice (C57BL/6J, male, 20–25 g, n = 3) before and after dosing: 5 μg per mouse (50 nmol kg^−1) i.v. Formulation: 20 μg mL^−1 in PBS 1×. The dosing was done at T0. Data are mean ± SEM. […] Source data are provided as a Source Data file
After the acclimation period (at least 5 days), mice (male C57BL/6J mice (Charles River laboratories) 8 weeks old, 20–25 g) were randomized into 10 groups (n = 3 per group) according to their body weight. They were acutely treated via i.v. route at 10 am (5 µg per mouse). Blood glucose was measured before dosing and at 30 min, 1, 2, 4, 6 h after dosing in fed conditions.

[2] = system: fasted normal mice (C57BL/6J); assay: Intraperitoneal glucose tolerance test (IPGTT) in fasted normal mice; type: in vivo, mouse; details: for AUC: IPGTT 5 min (Fig 4a), blood glucose AUC 0-120 min
Procedure: In a second study, an IPGTT was performed 30 min after i.v. injections of 1, 14 and the vehicle (Fig. 4b). […] A further IPGTT study was done with a glucose challenge after 2 h of the dosing to investigate the prolonged activity of hybrids 14, 22 and 23 (Fig. 4c).
Fig. 4 IPGTT studies in mice. a–d Intraperitoneal glucose tolerance test (IPGTT) at different time after dosing in fasted normal mice (C57BL/6J, male, 20–25 g). Dosage: 200 μg kg^−1 (50 nmol kg^−1) i.v. Formulation: 20 μg mL^−1 in PBS 1×. IPGTT: glucose 2 g kg^−1 i.p. at T0. a IPGTT after 5 min (n = 4). b IPGTT after 30 min (n = 6). c IPGTT after 2 h (n = 6). d IPGTT after 4 h (n = 3). Area under the curve (AUC) of the corresponding IPGTT curve. Data are mean ± SEM. […] Source data are provided as a Source Data file
After the acclimation period (at least 5 days), mice (male C57BL/6J mice (Charles River laboratories) 6 weeks old, 20–25 g) were randomized into groups according to their body weight. The mice were fasted for 6 h prior being acutely treated via i.v. route (5 µg per mouse i.v. (200 μg kg^−1, 50 nmol kg^−1)) formulated at 20 µg mL^−1 in PBS 1×. The IPGTTs were performed (glucose 2 g kg^−1 i.p.) 5 min, 30 min, 2 h or 4 h after dosing and blood glucose was measured at different time points after the glucose challenge.

mouse GLP-1 receptor [3] = biological target: T1, mouse GLP-1 receptor (Mus musculus, UniProt O35659); details: for Potency (%), percentage of potency compare to GLP-1-G^2: cAMP production, from EC50
T1 sequence (O35659 22-463): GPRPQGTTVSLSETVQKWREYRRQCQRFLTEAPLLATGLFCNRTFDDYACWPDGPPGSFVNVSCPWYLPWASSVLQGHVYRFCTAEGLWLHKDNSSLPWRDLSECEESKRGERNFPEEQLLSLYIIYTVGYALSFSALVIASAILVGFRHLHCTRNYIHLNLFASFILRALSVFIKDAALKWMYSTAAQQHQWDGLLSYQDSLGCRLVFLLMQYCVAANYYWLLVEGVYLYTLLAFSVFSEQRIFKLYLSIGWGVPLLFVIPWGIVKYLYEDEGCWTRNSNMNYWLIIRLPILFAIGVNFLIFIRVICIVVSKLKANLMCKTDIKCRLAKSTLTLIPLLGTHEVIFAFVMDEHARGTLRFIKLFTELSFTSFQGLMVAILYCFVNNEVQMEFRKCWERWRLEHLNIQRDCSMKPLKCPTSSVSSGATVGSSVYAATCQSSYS

mouse GLP-1 receptor [4] = biological target: T1, mouse GLP-1 receptor; assay: cell-based
in vitro [5] = details: isolated enzyme neprilysin, pH 8
Procedure: Stock solutions of the oligomers were prepared at a concentration of 400 µM in a solution of 50 mM HEPES buffer, 50 mM NaCl, 0.05% Tween-80, pH 8.0. Stock solution of NEP 24.11 was prepared at a concentration of 100 µg mL^−1 in water. Stability of oligomers to NEP 24.11 was assessed by conducting protease reaction in a 96-well plates at 20 °C. […] Each compound was also incubated in the absence of the enzyme (12 µL of HEPES buffer and 38 µL of oligomer). […] A portion of the quenched reaction solution was analysed by HPLC. The time course of peptide degradation was determined by integrating the area of each peak in a series of HPLC traces.

[6] = fasted C57BL/6J mice, 200 μg kg−1 (50 nmol kg−1) i.v., glucose 2 g kg−1 i.p., n = 6
[7] = read-out: Top (best-fit value), variable slope four-parameter fit, unconstrained, 14: experiment 1

Structure (SMILES) | remaining at 20 min, 5 µM (in vitro [1]) [%] | remaining at 1 h, 5 µM (in vitro [1]) [%] | In vivo activity (indicator) (normal mice (C57BL/6J)) | time after dosing for which the blood glucose decrease is preserved (normal mice (C57BL/6J)) [h] | effect on blood glucose concentration (normal mice (C57BL/6J)) | activity in IPGTT 2 h after dosing [2, 6] | Potency (%), percentage of potency compare to GLP-1-G^2 (mouse GLP-1 receptor [3]) [%] | pEC50 (mouse GLP-1 receptor [4]) | Emax (mouse GLP-1 receptor [4]; [7]) [%] | LogEC50 (best-fit value) (mouse GLP-1 receptor [3]) | also measured
CC[C@H](C)[C@H](NC(=O)[C@H](Cc1ccccc1)NC(=O)NC[C@H](C)NC(=O)NC[C@H](C)NC(=O)NC[C@H](C)NC(=O)[C@H](CCC(N)=O)NC(=O)CNC(=O)[C@H](CCC(=O)O)NC(=O)[C@H](CC(C)C)NC(=O)[C@H](Cc1ccc(O)cc1)NC(=O)[C@H](CO)NC(=O)[C@H](CO)NC(=O)[C@@H](NC(=O)[C@H](CC(=O)O)NC(=O)[C@H](CO)NC(=O)[C@@H](NC(=O)[C@H](Cc1ccccc1)NC(=O)[C@@H](NC(=O)CNC(=O)[C@H](CCC(=O)O)NC(=O)CNC(=O)[C@@H](N)Cc1c[nH]cn1)[C@@H](C)O)[C@@H](C)O)C(C)C)C(=O)N[C@@H](C)C(=O)N[C@@H](Cc1c[nH]c2ccccc12)C(=O)N[C@@H](CC(C)C)C(=O)N[C@H](C(=O)N[C@@H](CCCCN)C(=O)NCC(=O)N[C@@H](CCCNC(=N)N)C(=O)NCC(N)=O)C(C)C [compound 14, GG2[A^uA^uA^u]^18-21] (I: H-HGEGTFTSDVSSYLEGQ / II: FIAWLVKGRG-NH2; linker I:C-II:N via X1) | 66.9 | 30.5 | +++ | 4 | showed an improved efficacy compare to the native peptide 1 | good control of the blood glucose concentration during the IPGTT | 6 | 8.39 | 103 |  | half-life (in vitro [1]; pH 7.4): 38 min; AUC ([2]; mean of n = 4, 2018-03-08): 16833 mg·min/dL; AUC ([2]; single animal, 1st of group): 18150 mg·min/dL; AUC ([2]; single animal, 2nd of group): 13233 mg·min/dL; AUC ([2]; single animal, 3rd of group): 18503 mg·min/dL; AUC ([2]; single animal, 4th of group): 17445 mg·min/dL; activity in IPGTT 4 h after dosing ([2]; fasted C57BL/6J mice, 200 μg kg−1 (50 nmol kg−1) i.v., glucose 2 g kg−1 i.p., n = 3): still active after 6 h of the treatment; activity in IPGTT 5 min after dosing ([2]; fasted C57BL/6J mice, 200 μg kg−1 (50 nmol kg−1) i.v., glucose 2 g kg−1 i.p., n = 4): both analogues were active; activity in IPGTT 30 min after dosing [2, 6]: demonstrated full activity; Emax (mouse GLP-1 receptor [4]; read-out: Top (best-fit value), fit with BOTTOM = 0%, 14: experiment 1): 116%; Emax (mouse GLP-1 receptor [4]; read-out: Top (best-fit value), fit with BOTTOM = 0%, 14 experiment 2): 117%; Emax (mouse GLP-1 receptor [4]; read-out: Top (best-fit value), fit with BOTTOM = 0%, 14 experiment 3): 100%; Emax (mouse GLP-1 receptor [4]; read-out: Top (best-fit value), fit with BOTTOM = 0%, 14 experiment 4): 116%; Emax (mouse GLP-1 receptor [4]; read-out: Top (best-fit value), variable slope four-parameter fit, unconstrained, 14 experiment 2): 116%; Emax (mouse GLP-1 receptor [4]; read-out: Top (best-fit value), variable slope four-parameter fit, unconstrained, 14 experiment 3): 99.8%; Emax (mouse GLP-1 receptor [4]; read-out: Top (best-fit value), variable slope four-parameter fit, unconstrained, 14 experiment 4): 119%
CC[C@H](C)[C@H](NC(=O)[C@H](Cc1ccccc1)NC(=O)NC[C@H](C)NC(=O)NC[C@H](C)NC(=O)NC[C@H](C)NC(=O)NC[C@H](C)NC(=O)NC[C@H](CCC(=O)O)NC(=O)NC[C@H](Cc1ccc(O)cc1)NC(=O)[C@H](Cc1ccc(O)cc1)NC(=O)[C@H](CO)NC(=O)[C@H](CO)NC(=O)[C@@H](NC(=O)[C@H](CC(=O)O)NC(=O)[C@H](CO)NC(=O)[C@@H](NC(=O)[C@H](Cc1ccccc1)NC(=O)[C@@H](NC(=O)CNC(=O)[C@H](CCC(=O)O)NC(=O)CNC(=O)[C@@H](N)Cc1c[nH]cn1)[C@@H](C)O)[C@@H](C)O)C(C)C)C(=O)N[C@@H](C)C(=O)N[C@@H](Cc1c[nH]c2ccccc12)C(=O)N[C@@H](CC(C)C)C(=O)N[C@H](C(=O)N[C@@H](CCCCN)C(=O)NCC(=O)N[C@@H](CCCNC(=N)N)C(=O)NCC(N)=O)C(C)C [compound 23, GG2[Y^uE^uA^uA^uA^uA^u]^14-21] (I: H-HGEGTFTSDVSSY / II: FIAWLVKGRG-NH2; linker I:C-II:N via X2) |  | 24.8 | +++ | 4 | showed an improved efficacy compare to the native peptide 1 | good control of the blood glucose concentration during the IPGTT | 7 | 8.47 | 100 | -8.466 | half-life at 5 µM (in vitro [1]; pH 7.4): 39 min
CC[C@H](C)[C@H](NC(=O)[C@H](Cc1ccccc1)NC(=O)[C@H](CCC(=O)O)NC(=O)[C@H](CCCCN)NC(=O)[C@H](C)NC(=O)[C@H](C)NC(=O)NC[C@H](C)NC(=O)NC[C@H](CCC(=O)O)NC(=O)NC[C@H](Cc1ccc(O)cc1)NC(=O)[C@H](Cc1ccc(O)cc1)NC(=O)[C@H](CO)NC(=O)[C@H](CO)NC(=O)[C@@H](NC(=O)[C@H](CC(=O)O)NC(=O)[C@H](CO)NC(=O)[C@@H](NC(=O)[C@H](Cc1ccccc1)NC(=O)[C@@H](NC(=O)CNC(=O)[C@H](CCC(=O)O)NC(=O)CNC(=O)[C@@H](N)Cc1c[nH]cn1)[C@@H](C)O)[C@@H](C)O)C(C)C)C(=O)N[C@@H](C)C(=O)N[C@@H](Cc1c[nH]c2ccccc12)C(=O)N[C@@H](CC(C)C)C(=O)N[C@H](C(=O)N[C@@H](CCCCN)C(=O)NCC(=O)N[C@@H](CCCNC(=N)N)C(=O)NCC(N)=O)C(C)C [compound 9, GG2[Y^uE^uA^u]^14-17] (I: AAKEFIAWLVKGRG-NH2 / II: H-HGEGTFTSDVSSY; linker I:N-II:C via X3) | 33.1 | 11.7 | + |  | showed efficacy but no improvement |  | 135 | 9.74 | 88.2 | -9.749 | half-life (in vitro [5]): 180 min
